How the values were obtained:
[1] = test system: E. coli BT3/pACYCSP+pHASYS4 strain; assay: Growth of E. coli BT3/pACYCSP+pHASYS4 with herbicidal compound; type: cell-based, Escherichia coli; settings: 1 ppm, 18 hours culture, Table 16
Description: According to the description of Gibson, L. C. D. et al., Proc. Natl. Acad. Sci. USA, 92; p 1941 (1995), the DNA fragment containing bchH gene prepared in Example 1 was digested with the restriction enzymes NdeI and BglII. The resultant DNA fragment was inserted between NdeI restriction site and BamHI restriction site of expression vector pET11a (manufactured by Stratagene) to obtain plasmid pETBCH (FIG. 1). This plasmid pETBCH was introduced into E. coli BL21(DE3) strain competent cells (manufactured by Stratagene) according to the manual attached to the competent cells to obtain E. coli BL21(DE3)/pETBCH strain. The strain was inoculated into 1.5 ml LB liquid culture medium (1% tryptone, 0.5% yeast extract, 0.5% NaCl) containing 100 μg/ml ampicillin in a tube (14×10 mm), and the tube was covered with aluminum foil (hereinafter referred to as dark conditions), cultured with shaking at 37° C. under light of fluorescent lamp (about 8000 lux). When the absorbance at 600 nm of the liquid culture medium became about 0.6, isopropyl β-D-thiogalactopyranoside (IPTG) was added to the liquid culture medium so that the final concentration was 0.4 mM, and the culture was continued for about additional 20 hours. […]

[2] = test system: E. coli BT3/pACYCSP+pTVGMP strain; assay: Growth of E. coli BT3/pACYCSP+pTVGMP (variant soybean PPO) with herbicidal compound; type: cell-based, Escherichia coli; settings: 18 hours culture, Table 7
Description: According to the description of Gibson, L. C. D. et al., Proc. Natl. Acad. Sci. USA, 92; p 1941 (1995), the DNA fragment containing bchH gene prepared in Example 1 was digested with the restriction enzymes NdeI and BglII. The resultant DNA fragment was inserted between NdeI restriction site and BamHI restriction site of expression vector pET11a (manufactured by Stratagene) to obtain plasmid pETBCH (FIG. 1). This plasmid pETBCH was introduced into E. coli BL21(DE3) strain competent cells (manufactured by Stratagene) according to the manual attached to the competent cells to obtain E. coli BL21(DE3)/pETBCH strain. The strain was inoculated into 1.5 ml LB liquid culture medium (1% tryptone, 0.5% yeast extract, 0.5% NaCl) containing 100 μg/ml ampicillin in a tube (14×10 mm), and the tube was covered with aluminum foil (hereinafter referred to as dark conditions), cultured with shaking at 37° C. under light of fluorescent lamp (about 8000 lux). When the absorbance at 600 nm of the liquid culture medium became about 0.6, isopropyl β-D-thiogalactopyranoside (IPTG) was added to the liquid culture medium so that the final concentration was 0.4 mM, and the culture was continued for about additional 20 hours. […] In contrast to this, when E. coli BL21(DE3)/pETBCH strain was cultured according to the same manner (with IPTG) except that the tube was not covered with aluminum foil (hereinafter referred to as light conditions), E. coli grew and turned red as above.
Plasmids pTVGMP and pTV118N prepared in Example 11 were introduced into E. coli BT3/pACYCSP strain prepared in Example 3 respectively according to the method described in Flanahan, D. J., Mol. Biol., 166; p 557 (1983). E. coli BT3/pACYCSP+pTVGMP strain bearing plasmids pACYCSP and pTVGMP, and E. coli BT3/pACYCSP+pTV118N strain bearing plasmids pACYCSP and pTV118N were obtained by culturing the above strains in YPT medium containing 100 μg/ml ampicillin, 15 μg/ml chloramphenicol and 10 μg/ml kanamycin.
These E. coli strains were inoculated into YPT medium containing 10 or 1 ppm of PPO inhibitory-type herbicidal compound represented by Structure 8, 100 (ig/ml ampicillin, 15 μg/ml chloramphenicol, 10 μg/ml kanamycin, 10 μg/ml hemin and 50 μg/ml aminolevulinic acid, cultured under dark conditions or light conditions according to the same manner as in Example 2. Then, 18 hours after initiation of culture, the absorbance of liquid culture medium was measured at 600 nm. By taking the absorbance of the medium without the herbicidal compound as 1, the relative value of the absorbance of the medium containing the herbicidal compound was calculated.

SMILES: C#CCOc1cc(N2C(=O)C3=C(CCCC3)C2=O)c(F)cc1Cl [Structure 8]
- Relative absorbance ([1]; in the dark): 1.0
- Relative absorbance ([1]; in the light): 0.91
- Relative absorbance ([2]; in the dark, 1 ppm): 0.94
- Relative absorbance ([2]; in the dark, 10 ppm): 0.91
- Relative absorbance ([2]; in the light, 1 ppm): 0.85
- Relative absorbance ([2]; in the light, 10 ppm): 0.33
